Test [1] has as its target T1, 3-hydroxy-3-methylglutaryl-coenzyme A reductase (Homo sapiens, UniProt P04035).
T1 sequence (P04035 whole entry): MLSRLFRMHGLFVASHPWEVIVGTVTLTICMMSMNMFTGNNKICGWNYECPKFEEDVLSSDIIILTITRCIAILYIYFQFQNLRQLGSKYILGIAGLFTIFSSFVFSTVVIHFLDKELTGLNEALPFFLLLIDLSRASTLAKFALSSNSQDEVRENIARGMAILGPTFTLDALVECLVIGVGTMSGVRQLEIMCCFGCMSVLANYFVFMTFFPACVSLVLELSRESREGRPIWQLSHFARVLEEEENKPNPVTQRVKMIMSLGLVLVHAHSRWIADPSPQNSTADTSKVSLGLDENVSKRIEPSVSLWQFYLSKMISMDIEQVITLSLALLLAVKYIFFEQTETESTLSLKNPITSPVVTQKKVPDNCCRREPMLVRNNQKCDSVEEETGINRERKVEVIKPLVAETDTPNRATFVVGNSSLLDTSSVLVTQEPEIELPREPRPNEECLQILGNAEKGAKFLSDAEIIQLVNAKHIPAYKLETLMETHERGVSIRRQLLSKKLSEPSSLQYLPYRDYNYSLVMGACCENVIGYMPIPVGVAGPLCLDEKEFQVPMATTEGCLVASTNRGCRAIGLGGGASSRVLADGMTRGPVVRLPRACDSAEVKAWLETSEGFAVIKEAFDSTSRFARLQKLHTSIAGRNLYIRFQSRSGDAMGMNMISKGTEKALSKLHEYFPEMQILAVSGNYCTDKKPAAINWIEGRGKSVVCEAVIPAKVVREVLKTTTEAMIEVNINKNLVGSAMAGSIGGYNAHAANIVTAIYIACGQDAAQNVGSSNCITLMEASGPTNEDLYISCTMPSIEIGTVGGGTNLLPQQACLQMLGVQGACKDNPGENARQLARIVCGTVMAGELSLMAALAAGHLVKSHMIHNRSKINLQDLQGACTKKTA
Put plainly: Degradation of HMGCR (unknown origin) expressed in CHO-7 cells. In kind it is cell-based.

Test [2] has as its target T1, 3-hydroxy-3-methylglutaryl-coenzyme A reductase. The experiment in a line: Degradation of HMGCR (unknown origin).
In test [3] the target is Cyclin-dependent kinase 9 (Homo sapiens, UniProt P50750). The experiment in a line: Inhibition of CDK9 (unknown origin) incubated for 1 hr by fluorescent polarisation based assay.
The test system of test [4] is MCF7. The experiment in a line: cells. The note with it: Homo sapiens, MCF7, 72 h.
Description: Antiproliferative activity against human MCF7 cells incubated for 72 hrs by MTT assay
Test [5] addresses Protein cereblon/Basigin (Homo sapiens, UniProt P35613+Q96SW2). The experiment in a line: PROTAC activity at CRBN/CD147 (unknown origin) assessed as degradation of CD147. It counts as protein assay.
For test [6], the system named is SK-MEL-5. The experiment in a line: In vivo antitumor activity against human SK-MEL-5 cells xenografted in BALB/c nude mouse administered intraperitoneally every 2 days for 17 days. It counts as functional, organism-based. Background: In xenograft studies the graft and the host belong to different species.
Test [7] can be described thus: Degradation of ER in human MCF7 cells. It counts as cell-based.
Test [8] is described as follows: Antiviral activity against IAV WSN/33 infected in luciferase tagged HEK293T cells assessed as suppression of de novo viral replication incubated for 24 hr. In kind it is functional, cell-based. The note with it: Influenza A virus, WSN/33, HEK-293T.
Test [9] addresses von Hippel-Lindau disease tumor suppressor/Estrogen receptor (Homo sapiens, UniProt P03372+P40337). Put plainly: PROTAC activity at VHL/ERalpha in human MCF7 cells assessed as degradation of ERalpha. In kind it is cell-based.
Test [10] concerns the target von Hippel-Lindau disease tumor suppressor/G-protein coupled estrogen receptor 1 (Homo sapiens, UniProt Q99527+P40337). The experiment in a line: PROTAC activity at VHL/GPER (unknown origin) assessed as degradation of GPER. It counts as protein assay.
The test system of test [11] is SK-BR-3. The experiment in a line: Cytotoxicity against human SK-BR-3 cells by inducing cell cycle arrest incubated for 30 mins measured by FacScallibur flow cytometric analysis. The following applies: SK-BR-3, 0.5 h. In kind it is functional, cell-based.
In test [12] the test system is MCF7. The experiment in a line: Cytotoxicity against human MCF7 cells by inducing cell cycle arrest incubated for 30 mins measured by FacScallibur flow cytometric analysis. It counts as functional, cell-based. The note with it: MCF7, 0.5 h.
Test [13] has as its system HepG2. Put plainly: Cytotoxicity against human HepG2 cells incubated for 24 hrs by MTT assay. In kind it is functional, cell-based. The following applies: HepG2, 24 h. For orientation: Tetrazolium assays rely on reduction of a dye to a coloured formazan, in cell work by metabolically active cells.
The subject of test [14] is HepG2. Put plainly: Cytotoxicity against human HepG2 cells measured after 24 hrs by MTT assay. The following applies: HepG2, 24 h. It counts as functional, cell-based.
The subject of test [15] is Huh-7. The experiment in a line: Cytotoxicity against human Huh-7 cells measured after 24 hrs by MTT assay. The following applies: Huh-7, 24 h. It counts as functional, cell-based.
For test [16], the system named is A549. Put plainly: Cytotoxicity against human A549 cells incubated for 24 hrs by MTT assay. The note with it: A549, 24 h. It counts as functional, cell-based.
Test [17] has as its system Huh-7. The experiment in a line: Cytotoxicity against human Huh-7 cells incubated for 24 hrs by MTT assay. The note with it: Huh-7, 24 h. In kind it is functional, cell-based.
The test system of test [18] is A549. Put plainly: Cytotoxicity against human A549 cells measured after 24 hrs by MTT assay. In kind it is functional, cell-based. The following applies: A549, 24 h.
In test [19] the target is Protein cereblon/E3 ubiquitin-protein ligase Mdm2 (Homo sapiens) (UniProt Q00987+Q96SW2). The experiment in a line: PROTAC activity at CRBN/MDM2 (unknown origin) assessed as degradation of MDM2 relative to control. It counts as protein assay.

Consider nine molecules from ChEMBL document CHEMBL5214967, “Natural Product-Inspired Targeted Protein Degraders: Advances and Perspectives” (J Med Chem, 2022).

Sequence of Protein cereblon/Basigin (P35613 whole entry): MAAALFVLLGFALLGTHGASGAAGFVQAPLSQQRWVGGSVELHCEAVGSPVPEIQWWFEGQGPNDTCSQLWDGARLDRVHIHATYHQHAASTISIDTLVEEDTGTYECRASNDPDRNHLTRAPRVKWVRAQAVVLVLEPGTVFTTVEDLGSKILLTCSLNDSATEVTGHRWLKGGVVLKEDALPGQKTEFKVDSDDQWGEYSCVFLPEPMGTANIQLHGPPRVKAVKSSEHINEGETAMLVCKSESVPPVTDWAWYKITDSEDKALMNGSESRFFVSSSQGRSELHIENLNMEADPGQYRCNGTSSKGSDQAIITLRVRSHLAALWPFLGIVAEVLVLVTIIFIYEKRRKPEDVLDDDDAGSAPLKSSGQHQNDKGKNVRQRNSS
Sequence of Protein cereblon/Basigin (Q96SW2 whole entry): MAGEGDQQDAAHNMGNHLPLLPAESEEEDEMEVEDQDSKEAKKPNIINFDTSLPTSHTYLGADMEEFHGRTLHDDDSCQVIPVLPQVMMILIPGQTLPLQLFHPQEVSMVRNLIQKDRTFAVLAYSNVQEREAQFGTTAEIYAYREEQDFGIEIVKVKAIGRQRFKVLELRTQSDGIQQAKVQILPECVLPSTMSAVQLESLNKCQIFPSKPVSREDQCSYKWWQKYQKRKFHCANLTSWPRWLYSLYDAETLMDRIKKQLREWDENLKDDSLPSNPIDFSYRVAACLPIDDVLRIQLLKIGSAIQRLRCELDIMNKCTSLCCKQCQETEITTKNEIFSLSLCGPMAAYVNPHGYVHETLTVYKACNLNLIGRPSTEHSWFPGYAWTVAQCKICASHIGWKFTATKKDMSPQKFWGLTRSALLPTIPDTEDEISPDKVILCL
Sequence of Cyclin-dependent kinase 9 (P50750 whole entry): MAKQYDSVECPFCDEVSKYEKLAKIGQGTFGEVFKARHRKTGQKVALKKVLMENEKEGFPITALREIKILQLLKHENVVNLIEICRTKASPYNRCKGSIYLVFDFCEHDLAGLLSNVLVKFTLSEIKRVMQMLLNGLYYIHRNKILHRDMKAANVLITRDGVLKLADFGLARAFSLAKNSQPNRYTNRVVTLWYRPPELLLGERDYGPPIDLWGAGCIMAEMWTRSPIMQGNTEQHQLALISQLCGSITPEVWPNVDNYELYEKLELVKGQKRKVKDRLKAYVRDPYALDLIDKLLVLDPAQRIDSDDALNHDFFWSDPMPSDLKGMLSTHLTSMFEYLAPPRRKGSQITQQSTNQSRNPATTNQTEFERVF
Sequence of von Hippel-Lindau disease tumor suppressor/G-protein coupled estrogen receptor 1 (Q99527 whole entry): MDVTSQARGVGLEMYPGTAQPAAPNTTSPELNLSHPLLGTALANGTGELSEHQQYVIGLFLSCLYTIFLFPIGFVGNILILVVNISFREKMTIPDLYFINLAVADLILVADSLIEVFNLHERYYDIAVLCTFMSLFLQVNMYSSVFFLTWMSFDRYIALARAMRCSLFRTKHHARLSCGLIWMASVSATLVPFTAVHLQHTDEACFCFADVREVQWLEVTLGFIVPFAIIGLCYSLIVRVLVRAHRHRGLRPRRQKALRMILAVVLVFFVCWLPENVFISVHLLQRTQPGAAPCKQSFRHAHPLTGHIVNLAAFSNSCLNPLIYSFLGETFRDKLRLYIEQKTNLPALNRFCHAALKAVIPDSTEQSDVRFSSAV
Sequence of von Hippel-Lindau disease tumor suppressor/G-protein coupled estrogen receptor 1 (P40337 whole entry): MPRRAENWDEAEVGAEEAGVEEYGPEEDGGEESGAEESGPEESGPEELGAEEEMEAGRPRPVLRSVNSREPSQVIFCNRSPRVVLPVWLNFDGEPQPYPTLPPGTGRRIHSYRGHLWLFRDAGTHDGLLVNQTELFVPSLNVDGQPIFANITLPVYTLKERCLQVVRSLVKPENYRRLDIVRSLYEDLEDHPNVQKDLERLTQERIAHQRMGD
Sequence of von Hippel-Lindau disease tumor suppressor/Estrogen receptor (P03372 whole entry): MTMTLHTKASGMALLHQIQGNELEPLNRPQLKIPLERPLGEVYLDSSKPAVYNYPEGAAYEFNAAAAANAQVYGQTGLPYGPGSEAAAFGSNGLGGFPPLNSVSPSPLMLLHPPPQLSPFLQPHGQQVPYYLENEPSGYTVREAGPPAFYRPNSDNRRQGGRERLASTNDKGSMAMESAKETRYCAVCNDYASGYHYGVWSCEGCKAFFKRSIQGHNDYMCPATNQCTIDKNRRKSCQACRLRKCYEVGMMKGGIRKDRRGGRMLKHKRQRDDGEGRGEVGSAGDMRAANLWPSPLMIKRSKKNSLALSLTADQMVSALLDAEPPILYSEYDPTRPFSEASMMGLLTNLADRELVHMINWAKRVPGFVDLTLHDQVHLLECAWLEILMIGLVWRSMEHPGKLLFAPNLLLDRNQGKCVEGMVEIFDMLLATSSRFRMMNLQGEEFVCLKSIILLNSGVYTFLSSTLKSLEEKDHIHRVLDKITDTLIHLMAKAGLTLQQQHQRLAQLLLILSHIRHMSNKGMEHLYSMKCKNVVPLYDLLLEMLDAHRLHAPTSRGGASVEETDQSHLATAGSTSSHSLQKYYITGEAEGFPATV
Sequence of von Hippel-Lindau disease tumor suppressor/Estrogen receptor (P40337 whole entry): as the sequence (P40337 whole entry) above
Sequence of Protein cereblon/E3 ubiquitin-protein ligase Mdm2 (Homo sapiens) (Q00987 whole entry, looked up): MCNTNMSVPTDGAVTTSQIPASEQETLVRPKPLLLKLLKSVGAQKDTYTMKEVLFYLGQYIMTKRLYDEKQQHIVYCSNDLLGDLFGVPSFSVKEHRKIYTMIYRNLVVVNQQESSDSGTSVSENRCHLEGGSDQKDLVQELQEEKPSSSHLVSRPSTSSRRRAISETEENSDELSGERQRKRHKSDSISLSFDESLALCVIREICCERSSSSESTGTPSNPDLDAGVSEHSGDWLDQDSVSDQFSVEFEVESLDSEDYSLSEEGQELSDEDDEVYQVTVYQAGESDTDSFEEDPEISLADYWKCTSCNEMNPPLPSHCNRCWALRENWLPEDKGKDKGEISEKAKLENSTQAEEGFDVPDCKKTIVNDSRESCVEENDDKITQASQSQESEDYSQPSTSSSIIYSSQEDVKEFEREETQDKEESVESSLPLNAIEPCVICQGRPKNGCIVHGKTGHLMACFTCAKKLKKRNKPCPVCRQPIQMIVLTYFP
Sequence of Protein cereblon/E3 ubiquitin-protein ligase Mdm2 (Homo sapiens) (Q96SW2 whole entry, looked up): as the sequence (Q96SW2 whole entry) above

With `C=CCC(O)(CC=C)CCC[C@@H](C)[C@H]1CC[C@H]2[C@@H]3[C@@H](O)C=C4C(C)(C)[C@@H](O)CC[C@]4(C)[C@H]3CC[C@]12C`, the 50% degradation concentration (DC50) (commonly the midpoint of the concentration-degradation curve) in test [1] turned out to be 390 nM.

Take `CC(=O)N1N=CC2C[C@@]3(C)C(=CC[C@H]4[C@@H]5CC[C@H]([C@H](C)CCC(=O)N6CCOCC6)[C@@]5(C)CC[C@@H]43)C(C)(C)C21` (stereo not given in full): in [2], the DC50 is 220 nM.

`O=C1CCC(N2C(=O)c3cccc(NC(=O)CCCCCCCn4cc(COc5c(O)cc(O)c6c(=O)cc(-c7ccccc7)oc56)nn4)c3C2=O)C(=O)N1` (stereo not given): the IC50 – broadly, the point on the concentration scale where inhibition reaches its midpoint – in test [3] turned out to be 523 nM; in test [4], 17 nM.

As for `COC(=O)C1=CC[C@]23CC[C@H]([C@@]2(OC(C)=O)CC1)[C@](C)(/C=C/C=C(\C)C(=O)NCCNc1cccc2c1C(=O)N(C1CCC(=O)NC1=O)C2=O)OC3=O` (stereo not given in full), the IC50 in test [5] stood at 6720 nM; in test [6], 6230 nM.

In test [7], `CC1=CC(=O)[C@H]2/C(C=O)=C\C[C@H]3[C@@H]([C@@H](C)/C=C\C=C/C(=O)OCCOCCOCCOC(=O)CC45CC6CC(CC(C6)C4)C5)CC[C@]3(C)C[C@H]12` registered a DC50 of 1000 nM.

Turning to `C/C(=C\CC/C(C)=C/C[C@]1(O)C(=O)c2c(O)cc(C)c3c(O)c(C)c(O)c(c23)C1=O)CC/C=C(\CO)CC[C@@H](O)C(C)(C)O`, in test [8], the IC50 turned out to be 6600 nM.

On to `Cc1ncsc1-c1ccc(CNC(=O)[C@@H]2C[C@@H](O)CN2C(=O)[C@@H](NC(=O)COCCOCCOCCOCC(=O)O[C@H]2CC[C@H]3[C@@H]4CCc5cc(O)ccc5[C@H]4CC[C@]23C)C(C)(C)C)cc1`, for which the DC50 in [9] amounted to 10000 nM; in test [10], 100000 nM. Further, the IC50 in [11] was determined as 10900 nM; in test [12], 9000 nM.

For `COc1c(O)cc(O)c2c(=O)cc(-c3ccccc3)oc12` [WOGONIN], in test [4], the IC50 was 30 nM.

Take `C[C@H]1[C@H](C)CCC2(C(=O)NCCOCCOCCOCCNc3cccc4c3C(=O)N(C3CCC(=O)NC3=O)C4=O)CC[C@]3(C)C(=CC[C@@H]4[C@@]5(C)CCC(O)C(C)(C)[C@@H]5CC[C@]43C)[C@H]12` (stereo not given in full): the IC50 in test [13] worked out at 230 nM; in test [14] it was 380 nM; in test [15], 390 nM; in [16] it was 230 nM; in test [17], 230 nM; in test [18], 230 nM. Also, the Emax (as a rule, the size of the effect at its maximum, as opposed to the concentration needed) in [19] amounted to 75%.
